This note sets out measurements from US12145925B2, “Phthalazine derivatives as inhibitors of PARP1, PARP2, and/or tubulin useful for the treatment of cancer” (THE REGENTS OF THE UNIVERSITY OF CALIFORNIA, priority 2016, dated 2024).

Structures are written as SMILES.

This test deals with T1, PARP2 (Homo sapiens, UniProt Q9UGN5).
T1 construct: purchased BPS Bioscience 80552
Put plainly: PARP2 enzymatic activity inhibition (BPS Bioscience PARP2 Assay Kit). Type of test: biochemical. Conditions: incorporation of biotinylated poly(ADP-ribose) onto histone proteins. On the procedure:
The half maximal inhibitory concentration (IC50) with respect to PARP2 inhibition was determined for each test compound by using BPS Bioscience PARP2 Assay Kit, according to the manufacturer's protocol (Cat #80552, San Diego, CA). This assay measures the incorporation of biotinylated poly(ADP-ribose) onto histone proteins in a 96-well strip well format. This assay is ideal for the determination of IC50 values of known or suspected PARP inhibitors. Briefly, stock solutions of each test compound were prepared in DMSO. Histone strip wells were incubated for 30 minutes at room temperature with 50 μl/well of 1×PARP Buffer to rehydrate the histones. Serial dilutions of either test compound were added to appropriate wells. Diluted PARP enzyme (0.5 Unit/well) was then added to the wells containing compounds, and incubated for 10 minutes at room temperature. […] Three types of control wells were also analyzed; i. A negative control without PARP was prepared to determine background absorbance. ii. […] The reactions were then stopped by adding 50 μl per well of 0.2M HCl or 5% Phosphoric Acid and read the absorbance at 450 nm. The IC50 values were determined by performing non-linear regression analysis fitting velocities and the logarithm of inhibitor concentrations to a sigmoidal dose response with a variable slope model using the GraphPad Prism 6.0 software. […]

T1 sequence (Q9UGN5 whole entry): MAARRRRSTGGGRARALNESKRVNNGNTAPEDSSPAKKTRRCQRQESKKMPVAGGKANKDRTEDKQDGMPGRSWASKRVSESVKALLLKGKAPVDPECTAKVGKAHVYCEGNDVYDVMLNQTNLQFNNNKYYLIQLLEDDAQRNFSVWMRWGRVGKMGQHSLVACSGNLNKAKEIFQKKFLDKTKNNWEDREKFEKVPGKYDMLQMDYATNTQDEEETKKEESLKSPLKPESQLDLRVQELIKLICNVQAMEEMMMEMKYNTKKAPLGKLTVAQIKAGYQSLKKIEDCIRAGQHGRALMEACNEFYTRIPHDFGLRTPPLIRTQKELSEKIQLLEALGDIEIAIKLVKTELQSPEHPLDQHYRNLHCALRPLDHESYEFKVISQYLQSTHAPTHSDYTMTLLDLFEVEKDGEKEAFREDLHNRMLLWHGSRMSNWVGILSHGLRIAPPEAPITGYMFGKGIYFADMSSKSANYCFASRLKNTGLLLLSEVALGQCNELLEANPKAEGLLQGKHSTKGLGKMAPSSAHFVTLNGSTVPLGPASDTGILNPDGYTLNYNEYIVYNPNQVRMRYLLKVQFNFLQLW

Molecule `COC(=O)Nc1nc2cc(-c3cc(Cc4n[nH]c(=O)c5ccccc45)ccc3F)ccc2[nH]1` [Ex 1.1, methyl (5-(2-fluoro-5-((4-oxo-3,4-dihydrophthalazin-1-yl)methyl)phenyl)-1H-benzimidazol-2-yl)carbamate] yielded an IC50 of 0.05 nM.

As usually defined, the IC50 is the concentration needed to halve the response being measured. A lower IC50 goes with higher potency.
